Values after ≈ are worked out from the molar mass of the structure shown. Values joined by “and” are separate entries in the source; they are usually repeats but may differ in a detail not shown here. Equal values may be shown once.
Assays:
[1] = test system: Enterococcus faecalis ATCC 51575; assay: MIC (WuXi, Mueller–Hinton broth) against E. faecalis; assay type: cell-based; conditions: ATCC51575
Method: Bacterial colonies (4–8) of strains of interest were vortexed in saline and adjusted to an OD600 of 0.2. Strains were diluted 1:200 into CAMHB media in 96-well plates. Antibiotics were serially diluted 1:3 in DMSO, and 1 μl of each dilution was added to bacteria. The plates were incubated for 18–20 h at 37 °C before observation.

[2] = test system: Staphylococcus aureus USA300; assay: MIC against S. aureus USA300 in LB broth; assay type: cell-based; conditions: USA300, 16 h
Method: (§1) Overnight cultures were diluted 1:150 in LB broth and added to a 96-well plate. Antibiotics were serially diluted 1:2 and added to columns of the 96-well plate and grown at 37 °C with continuous shaking. Cell growth was measured using optical density at 600 nm (OD600). MIC assays were performed in either BioTek Synergy HT or Tecan InfiniteM200 Pro microplate readers.

[3] = test system: Enterobacter cloacae ATCC BAA-1143; assay: MIC against E. cloacae in LB broth; assay type: cell-based; conditions: ATCCBAA1143, 16 h
Method: as §1

[4] = test system: P. aeruginosa PA14; assay: Growth competition assay, c.f.u. of P. aeruginosa PA14; assay type: cell-based, Pseudomonas aeruginosa
Method: Cultures of each species were grown separately as well as being mixed 1:1. […] The number of colonies on Pseudomonas Selection Agar plates is reported as the c.f.u. ml^−1 of P. aeruginosa. To calculate c.f.u.s ml^−1 of E. coli MG1655, c.f.u.s ml^−1 were determined from LB agar plates and the c.f.u.s ml^−1 of P. aeruginosa were subtracted from these values.

[5] = test system: PA14; assay: Checkerboard assay fluorofolin / sulfamethoxazole; assay type: cell-based, Pseudomonas aeruginosa; conditions: for FIC index: PA14, SMX 0.000 ug/mL
Method: Cells were seeded in a similar manner as described above for MIC calculations. […] Fractional inhibitory concentrations (FICs) were calculated as [[…], where [fluorofolin] and [SMX] are the concentrations of compounds in a given well, which were divided by the concentration of drug at the MIC for each compound.

[6] = test system: S. epidermidis; assay: Growth with or without TMI supplementation and fluorofolin, S. epidermidis; assay type: cell-based, Staphylococcus epidermidis; conditions: fluorofolin 2X MIC
Method: (§2) Where listed, growth media were prepared according manufacturer recommendations: LB broth and LB broth supplemented with 0.3 mM thymine (BD Biosciences 244610, Alfa Aesar A15879), 0.3 mM methionine (Sigma-Aldrich M9625), 0.3 mM inosine (EMD Millipore 4060), cation-adjusted Mueller–Hinton II broth (CAMHB) (BD 212322) or 0.3 mM thymidine (Sigma-Aldrich T1895), Gutnick minimal media (1.0 g l^−1 K2SO4, 13.5 g l^−1 K2HPO4, 4.7 g l^−1 KH2PO4, 0.1 g l^−1 MgSO4·7H2O, 10 mM NH4Cl as a nitrogen source and 0.4% w/v glucose as a carbon source)[65].
(§3) Extended Data Fig. 3 TMI supplementation can also rescue other species from fluorofolin DHFR inhibition. […] (f) P. aeruginosa PA14 or E. coli lptd4213 treated with fluorofolin 50 μg/mL in the presence or absence of 0.3 mM thymidine. (g) E. coli lptd4213 treated with fluorofolin 50 μg/mL and SMX (78.1 μg/mL) in the presence or absence of 0.3 mM thymidine or 0.3 mM TMI supplementation, Curves represent average optical at 600 nm (OD600) of 2 biological replicates. Means are shown. Source data

[7] = test system: K. pneumoniae; assay: Growth with or without TMI supplementation and fluorofolin, K. pneumoniae; assay type: cell-based, Klebsiella pneumoniae; conditions: fluorofolin 2X MIC
Method: as §2, §3

[8] = test system: E. faecalis; assay: Growth with or without TMI supplementation and fluorofolin, E. faecalis; assay type: cell-based, Enterococcus faecalis; conditions: fluorofolin 2X MIC
Method: as §2, §3

[9] = test system: P. aeruginosa PA14; assay: In vivo PA14 murine thigh infection; conditions: neutropenic CD-1 mice, 24 h post infection; fluorofolin 25 mg kg^−1 subcutaneous and/or SMX 100 mg kg^−1 intraperitoneal at 1 and 12 h; one value per mouse
From the text: For P. aeruginosa thigh infection model and maximum tolerated dose (MTD) studies, care and handling of female 5–6-week-old CD-1 conformed to Institutional Animal Care and Use Committee (IACUC) policies as carried out at the University of North Texas Health Science Center (Fort Worth, Texas) under UNTHSC IACUC-approved protocol nos. IACUC-2021-0003 and IACUC-2020-0039. Rodents were fed either base chow (Envigo) or base diet supplemented with 1.8 g kg^−1 thymidine (Sigma T9250) starting at 2 days before infection. All procedures were conducted in accordance with the UNTHSC IACUC-approved protocol. Animals were housed in rooms undergoing 10–15 air changes per hour. Air provided to the animal rooms was controlled for temperature and humidity and is fully monitored 24 h a day. Air pressure was balanced according to room use. Lighting was controlled in individual rooms by automatic timers with a standard 12 h on, 12 h off cycle.
Female 5–6-week-old CD-1 mice were rendered neutropenic by intraperitoneal cyclophosphamide treatment (Cytoxan) before this study. On day 0, mice were infected intramuscularly with 5.33 log c.f.u. per thigh PA14. Mice were treated subcutaneously with fluorofolin at 1 and 12 h post infection. For co-treatment, mice were treated with SMX intraperitoneally at 1 and 12 h post infection. […] In vivo efficacy was evaluated by the UNTHSC.

[10] = test system: Pseudomonas aeruginosa ATTC 27853; assay: MIC against P. aeruginosa ATTC 27853 in LB broth; assay type: cell-based; conditions: ATTC27853, 16 h
Method: as §1

[11] = test system: PBMC (peripheral blood mononuclear cell); assay: Mammalian cell cytotoxicity, PBMC; assay type: cell-based, human
Method: HK-2 (500 cells per well) (ATCC CRL-2190), HLF (500 cells per well) (Cell Applications 506K-05a), WI-38 (500 cells per well) (ATCC CCL-75) or PBMC (5,000 cells per well) (TPCS PB010C) cells were seeded in white opaque 384-well plates. After 24 h, DMSO or compounds were added in 3-fold dilutions and cells incubated for 72 h. For PBMC, CellTiter-Glo reagent was added in equal volume and incubated for 30 min, after which luminescence was read. For other cell types, CyQUANT detection reagent was added in equal volume and cells incubated for 1 h, after which fluorescence was read with standard green filter set […]. Cell toxicity was evaluated by Pharmaron.

[12] = test system: P. aeruginosa PA14; assay type: cell-based, Pseudomonas aeruginosa; conditions: PA14, 4× MIC plates

Nc1nc(N)c2c(ccc3c2ccn3Cc2ccnc(F)c2)n1 [fluorofolin]
MIC [1]: 0.01 µg/mL (≈ 0.0324 µM)
MIC [2]: 0.4 µg/mL
MIC [3]: 12.5 µg/mL
growth in co-culture with TMI supplementation ([4]; PA14 : E. coli MG1655 1:1, 50 μg ml^−1 fluorofolin, selective plating): selectively inhibited the growth of P. aeruginosa
P. Aeruginosa PA14 CFU/mL ([4]; Panel C, Fluorofolin): 39 CFU/mL and 46 CFU/mL and 40 CFU/mL
FIC index ([5]; Fluorofolin 3.125 ug/mL): 1
FIC index ([5]; Fluorofolin 6.25 ug/mL): 2
FIC index ([5]; Fluorofolin 12.5 ug/mL): 4
FIC index ([5]; Fluorofolin 25 ug/mL): 8
MIC ([5]; Pseudomonas aeruginosa, PA14, read-out: MIC of fluorofolin in the presence of SMX): 0.4 µg/mL
rescue of growth inhibition by TMI supplementation [6]: could also be rescued from fluorofolin growth inhibition by TMI supplementation
rescue of growth inhibition by TMI supplementation [7]: could also be rescued from fluorofolin growth inhibition by TMI supplementation
rescue of growth inhibition by TMI supplementation [8]: could also be rescued from fluorofolin growth inhibition by TMI supplementation
PA14 load in thigh [9]: 9.3 log 10(CFU/ mouse) and 9.24 log 10(CFU/ mouse) and 9.05 log 10(CFU/ mouse) and 9.1 log 10(CFU/ mouse)
MIC [10]: 25 µg/mL
IC50 ([11]; Homo sapiens, PBMC, 72 h, CellTiter-Glo, read-out: IC50 Fluorofolin): 39.8 µg/mL (≈ 129 µM)
increase in IC50 compared with IRS-16 ([11]; PBMCs): 9.6 fold
resistance frequency compared between antibiotics [12]: significantly lower resistance frequency than meropenem

Source: article PMC11087268, “A folate inhibitor exploits metabolic differences in Pseudomonas aeruginosa for narrow-spectrum targeting” (Nature Microbiology, 2024)
